From the NIST ThermoML archive (doi:10.1021/je7002447)

Tests used:
[1] = excess molar enthalpy (molar enthalpy of mixing); xn = mol fraction of the nth substance listed; conditions: 298.15 K, 101.3 kPa, Liquid, Flow calorimetry
[2] = 298.15 K; 101.33 kPa; Liquid

Clc1ccccc1 [chlorobenzene] + Cc1ccccc1
[1]
Conditions | excess molar enthalpy [kJ/mol]
x1 = 0.1156 | -0.0528
x1 = 0.2072 | -0.0828
x1 = 0.2584 | -0.0944
x1 = 0.3433 | -0.109
x1 = 0.4107 | -0.114
x1 = 0.5111 | -0.115
x1 = 0.6106 | -0.107
x1 = 0.6765 | -0.0963
x1 = 0.807 | -0.0675
x1 = 0.9127 | -0.0334

Clc1ccccc1 [chlorobenzene] + c1ccccc1
[1]
Conditions | excess molar enthalpy [kJ/mol]
x1 = 0.0804 | -0.0021
x1 = 0.1272 | -0.0028
x1 = 0.1794 | -0.0039
x1 = 0.2258 | -0.0046
x1 = 0.3043 | -0.0051
x1 = 0.3684 | -0.0055
x1 = 0.3962 | -0.0058
x1 = 0.4666 | -0.0057
x1 = 0.5384 | -0.0054
x1 = 0.5675 | -0.0055
x1 = 0.6363 | -0.0049
x1 = 0.6999 | -0.0042
x1 = 0.7777 | -0.0036
x1 = 0.8235 | -0.0031
x1 = 0.8974 | -0.0017

ClCc1ccccc1 [(chloromethyl)benzene] + Clc1ccccc1
[1]
Conditions | excess molar enthalpy [kJ/mol]
x2 = 0.1118 | 0.0601
x2 = 0.2012 | 0.0901
x2 = 0.2742 | 0.102
x2 = 0.335 | 0.113
x2 = 0.4304 | 0.12
x2 = 0.5312 | 0.114
x2 = 0.6018 | 0.106
x2 = 0.6939 | 0.0922
x2 = 0.7514 | 0.0783
x2 = 0.8193 | 0.0626
x2 = 0.858 | 0.0515

ClCCCc1ccccc1 [(3-chloropropyl)benzene] + c1ccccc1
[1]
Conditions | excess molar enthalpy [kJ/mol]
x1 = 0.0913 | -0.0096
x1 = 0.1843 | -0.02
x1 = 0.2316 | -0.0229
x1 = 0.3113 | -0.03
x1 = 0.376 | -0.0344
x1 = 0.4455 | -0.0363
x1 = 0.5466 | -0.0363
x1 = 0.6164 | -0.0343
x1 = 0.7068 | -0.0295
x1 = 0.7834 | -0.0238
x1 = 0.8282 | -0.0199
x1 = 0.8577 | -0.0174

CCc1ccccc1 [ethylbenzene]
Conditions | mass density [kg/m3]
[2] | 862.55

ClCCc1ccccc1 [(2-chloroethyl)benzene] + CCc1ccccc1
[1]
Conditions | excess molar enthalpy [kJ/mol]
x1 = 0.105 | 0.0334
x1 = 0.19 | 0.0502
x1 = 0.2603 | 0.062
x1 = 0.3194 | 0.0757
x1 = 0.3849 | 0.0799
x1 = 0.4841 | 0.0847
x1 = 0.5847 | 0.0809
x1 = 0.6524 | 0.0771
x1 = 0.7379 | 0.0665
x1 = 0.7897 | 0.0601
x1 = 0.8825 | 0.0348
x1 = 0.9037 | 0.0268

ClCCc1ccccc1 [(2-chloroethyl)benzene] + CCCCc1ccccc1
[1]
Conditions | excess molar enthalpy [kJ/mol]
x1 = 0.1063 | 0.0994
x1 = 0.1295 | 0.117
x1 = 0.1655 | 0.143
x1 = 0.2293 | 0.185
x1 = 0.3085 | 0.217
x1 = 0.373 | 0.236
x1 = 0.4424 | 0.253
x1 = 0.4716 | 0.254
x1 = 0.5434 | 0.255
x1 = 0.6134 | 0.248
x1 = 0.7041 | 0.226
x1 = 0.7604 | 0.199
x1 = 0.8264 | 0.16
x1 = 0.8639 | 0.132
x1 = 0.9225 | 0.0817

CCCc1ccccc1 [propylbenzene]
Conditions | mass density [kg/m3]
[2] | 857.62

Clc1ccccc1 [chlorobenzene]
Conditions | mass density [kg/m3]
[2] | 1101.17

Clc1ccccc1 [chlorobenzene] + CCc1ccccc1
[1]
Conditions | excess molar enthalpy [kJ/mol]
x1 = 0.1075 | -0.0549
x1 = 0.1308 | -0.0655
x1 = 0.1671 | -0.078
x1 = 0.2864 | -0.115
x1 = 0.3111 | -0.121
x1 = 0.4453 | -0.14
x1 = 0.4745 | -0.145
x1 = 0.5463 | -0.143
x1 = 0.6436 | -0.126
x1 = 0.7625 | -0.109
x1 = 0.8784 | -0.0627
x1 = 0.9233 | -0.04

ClCCc1ccccc1 [(2-chloroethyl)benzene] + CCCc1ccccc1
[1]
Conditions | excess molar enthalpy [kJ/mol]
x1 = 0.1173 | 0.0724
x1 = 0.1375 | 0.0783
x1 = 0.1662 | 0.0925
x1 = 0.2099 | 0.111
x1 = 0.285 | 0.138
x1 = 0.347 | 0.152
x1 = 0.4147 | 0.165
x1 = 0.4436 | 0.169
x1 = 0.5152 | 0.172
x1 = 0.5863 | 0.169
x1 = 0.6145 | 0.162
x1 = 0.6801 | 0.154
x1 = 0.7392 | 0.133
x1 = 0.8096 | 0.11
x1 = 0.85 | 0.093
x1 = 0.914 | 0.0577

CCCCc1ccccc1 [butylbenzene] + Clc1ccccc1
[1]
Conditions | excess molar enthalpy [kJ/mol]
x2 = 0.133 | -0.0407
x2 = 0.1609 | -0.0482
x2 = 0.2036 | -0.0581
x2 = 0.2772 | -0.0742
x2 = 0.3383 | -0.0834
x2 = 0.4341 | -0.0917
x2 = 0.535 | -0.0874
x2 = 0.6054 | -0.081
x2 = 0.6971 | -0.0687
x2 = 0.8036 | -0.0555
x2 = 0.902 | -0.0344

ClCc1ccccc1 [(chloromethyl)benzene]
Conditions | mass density [kg/m3]
[2] | 1094.82

ClCCc1ccccc1 [(2-chloroethyl)benzene]
Conditions | mass density [kg/m3]
[2] | 1066.91

ClCc1ccccc1 [(chloromethyl)benzene] + Cc1ccccc1
[1]
Conditions | excess molar enthalpy [kJ/mol]
x1 = 0.1036 | 0.0241
x1 = 0.1877 | 0.0387
x1 = 0.2574 | 0.0471
x1 = 0.3161 | 0.0535
x1 = 0.3813 | 0.0585
x1 = 0.4803 | 0.06
x1 = 0.581 | 0.0555
x1 = 0.649 | 0.0519
x1 = 0.735 | 0.0454
x1 = 0.7871 | 0.0395
x1 = 0.8809 | 0.0239
x1 = 0.9024 | 0.0214

ClCCCc1ccccc1 [(3-chloropropyl)benzene] + CCCc1ccccc1
[1]
Conditions | excess molar enthalpy [kJ/mol]
x1 = 0.0863 | 0.0037
x1 = 0.136 | 0.0066
x1 = 0.191 | 0.0092
x1 = 0.2394 | 0.0116
x1 = 0.3207 | 0.0137
x1 = 0.3863 | 0.0164
x1 = 0.4145 | 0.0172
x1 = 0.4856 | 0.0186
x1 = 0.5573 | 0.0195
x1 = 0.5861 | 0.0194
x1 = 0.6538 | 0.0194
x1 = 0.7157 | 0.0177
x1 = 0.7391 | 0.0179
x1 = 0.7906 | 0.0158
x1 = 0.8343 | 0.013
x1 = 0.9042 | 0.009
x1 = 0.9189 | 0.008

ClCc1ccccc1 [(chloromethyl)benzene] + CCCc1ccccc1
[1]
Conditions | excess molar enthalpy [kJ/mol]
x1 = 0.1315 | 0.111
x1 = 0.2325 | 0.159
x1 = 0.3124 | 0.196
x1 = 0.3772 | 0.209
x1 = 0.4468 | 0.221
x1 = 0.5478 | 0.227
x1 = 0.645 | 0.203
x1 = 0.7079 | 0.185
x1 = 0.7842 | 0.144
x1 = 0.8289 | 0.102
x1 = 0.8791 | 0.0855
x1 = 0.9065 | 0.0643

c1ccccc1 [benzene]
Conditions | mass density [kg/m3]
[2] | 873.58

ClCc1ccccc1 [(chloromethyl)benzene] + CCc1ccccc1
[1]
Conditions | excess molar enthalpy [kJ/mol]
x1 = 0.0962 | 0.0523
x1 = 0.1664 | 0.0757
x1 = 0.2102 | 0.0874
x1 = 0.2853 | 0.101
x1 = 0.4151 | 0.118
x1 = 0.5156 | 0.119
x1 = 0.5866 | 0.116
x1 = 0.6804 | 0.104
x1 = 0.7395 | 0.0922
x1 = 0.8098 | 0.0755
x1 = 0.8646 | 0.0571
x1 = 0.8949 | 0.0418

ClCc1ccccc1 [(chloromethyl)benzene] + CCCCc1ccccc1
[1]
Conditions | excess molar enthalpy [kJ/mol]
x1 = 0.1194 | 0.138
x1 = 0.145 | 0.168
x1 = 0.2028 | 0.201
x1 = 0.2532 | 0.249
x1 = 0.3114 | 0.277
x1 = 0.4041 | 0.305
x1 = 0.5043 | 0.319
x1 = 0.5756 | 0.315
x1 = 0.6439 | 0.298
x1 = 0.7307 | 0.259
x1 = 0.7834 | 0.219
x1 = 0.8444 | 0.173
x1 = 0.8906 | 0.123
x1 = 0.9313 | 0.0852

ClCCc1ccccc1 [(2-chloroethyl)benzene] + Cc1ccccc1
[1]
Conditions | excess molar enthalpy [kJ/mol]
x1 = 0.075 | -0.0003
x1 = 0.092 | 0
x1 = 0.1686 | 0.0008
x1 = 0.2332 | 0.0021
x1 = 0.2885 | 0.0027
x1 = 0.3782 | 0.0046
x1 = 0.4478 | 0.0055
x1 = 0.5195 | 0.007
x1 = 0.5488 | 0.0074
x1 = 0.6186 | 0.0079
x1 = 0.6838 | 0.0077
x1 = 0.7643 | 0.0073
x1 = 0.8122 | 0.0068
x1 = 0.8439 | 0.0061
x1 = 0.8902 | 0.0048
x1 = 0.9068 | 0.0041

CCCc1ccccc1 [propylbenzene] + Clc1ccccc1
[1]
Conditions | excess molar enthalpy [kJ/mol]
x2 = 0.1205 | -0.0505
x2 = 0.1859 | -0.0678
x2 = 0.2551 | -0.0883
x2 = 0.3394 | -0.102
x2 = 0.4066 | -0.109
x2 = 0.4774 | -0.116
x2 = 0.5781 | -0.109
x2 = 0.6727 | -0.101
x2 = 0.7851 | -0.079
x2 = 0.8796 | -0.0495
x2 = 0.9164 | -0.0327

CCCCc1ccccc1 [butylbenzene]
Conditions | mass density [kg/m3]
[2] | 856.29

ClCCCc1ccccc1 [(3-chloropropyl)benzene] + CCCCc1ccccc1
[1]
Conditions | excess molar enthalpy [kJ/mol]
x1 = 0.1167 | 0.0307
x1 = 0.209 | 0.0593
x1 = 0.2605 | 0.0699
x1 = 0.3458 | 0.0824
x1 = 0.4134 | 0.0902
x1 = 0.5138 | 0.0948
x1 = 0.5849 | 0.0932
x1 = 0.6132 | 0.0896
x1 = 0.6789 | 0.0809
x1 = 0.7381 | 0.0718
x1 = 0.8087 | 0.0573
x1 = 0.9136 | 0.0314

ClCCCc1ccccc1 [(3-chloropropyl)benzene] + CCc1ccccc1
[1]
Conditions | excess molar enthalpy [kJ/mol]
x1 = 0.0766 | -0.0197
x1 = 0.1214 | -0.0289
x1 = 0.1717 | -0.0373
x1 = 0.2372 | -0.0432
x1 = 0.2931 | -0.0464
x1 = 0.3835 | -0.0504
x1 = 0.4534 | -0.0504
x1 = 0.5251 | -0.0491
x1 = 0.5544 | -0.0476
x1 = 0.6239 | -0.0431
x1 = 0.7133 | -0.0348
x1 = 0.7684 | -0.0301
x1 = 0.8327 | -0.0217
x1 = 0.8924 | -0.014

ClCCCc1ccccc1 [(3-chloropropyl)benzene]
Conditions | mass density [kg/m3]
[2] | 1041.84

Cc1ccccc1 [toluene]
Conditions | mass density [kg/m3]
[2] | 862.19

ClCCCc1ccccc1 [(3-chloropropyl)benzene] + Cc1ccccc1
[1]
Conditions | excess molar enthalpy [kJ/mol]
x1 = 0.1072 | -0.0523
x1 = 0.1526 | -0.069
x1 = 0.1936 | -0.0816
x1 = 0.2648 | -0.0969
x1 = 0.3244 | -0.106
x1 = 0.3507 | -0.106
x1 = 0.4187 | -0.114
x1 = 0.4899 | -0.108
x1 = 0.5193 | -0.107
x1 = 0.5903 | -0.102
x1 = 0.6576 | -0.0911
x1 = 0.6836 | -0.0857
x1 = 0.7423 | -0.0752
x1 = 0.8121 | -0.0571
x1 = 0.8781 | -0.0369

ClCCc1ccccc1 [(2-chloroethyl)benzene] + c1ccccc1
[1]
Conditions | excess molar enthalpy [kJ/mol]
x1 = 0.1016 | 0.0309
x1 = 0.145 | 0.0375
x1 = 0.2028 | 0.044
x1 = 0.3115 | 0.0479
x1 = 0.4042 | 0.0469
x1 = 0.5044 | 0.0418
x1 = 0.5757 | 0.0358
x1 = 0.6706 | 0.0287
x1 = 0.7308 | 0.0243
x1 = 0.8028 | 0.0197
x1 = 0.8444 | 0.0148
